Measured values as given in patent publication US8575091B1, “Amylin analogues and pharmaceutical compositions thereof” (Novo Nordisk A/S, priority 2012, dated 2013).
Like-named read-outs stand apart in the source and are kept apart here. Numbered stars: 1 amine (or outer) side, 2 acyl side, 3 side chain; on linkers, the order of the positions; unused ones are H or OH. Bridge positions count the residues as written; N and C are the ends. Side chains are listed from the residue outwards. Peptide text beside a SMILES is read from it. * marks the point of attachment. C20 diacid = O=C(O)CCCCCCCCCCCCCCCCCCC(=O)*; γGlu = O=C(O)[C@H](CCC(=O)[*:2])N[*:1]

Experiments:
[1] = target: T1, human amylin receptor (amylin 3(a) receptor: human calcitonin receptor + RAMP-3) (Homo sapiens, UniProt O60896+P30988); assay: Assay (II)a functional assay, human amylin receptor (CRE luciferase, BHK cells); assay type: cell-based; conditions: for EC50: read-out: hAmylin-R funct. EC50
T1 construct: expressed in transfected cells
T1 sequence (P30988 25-474): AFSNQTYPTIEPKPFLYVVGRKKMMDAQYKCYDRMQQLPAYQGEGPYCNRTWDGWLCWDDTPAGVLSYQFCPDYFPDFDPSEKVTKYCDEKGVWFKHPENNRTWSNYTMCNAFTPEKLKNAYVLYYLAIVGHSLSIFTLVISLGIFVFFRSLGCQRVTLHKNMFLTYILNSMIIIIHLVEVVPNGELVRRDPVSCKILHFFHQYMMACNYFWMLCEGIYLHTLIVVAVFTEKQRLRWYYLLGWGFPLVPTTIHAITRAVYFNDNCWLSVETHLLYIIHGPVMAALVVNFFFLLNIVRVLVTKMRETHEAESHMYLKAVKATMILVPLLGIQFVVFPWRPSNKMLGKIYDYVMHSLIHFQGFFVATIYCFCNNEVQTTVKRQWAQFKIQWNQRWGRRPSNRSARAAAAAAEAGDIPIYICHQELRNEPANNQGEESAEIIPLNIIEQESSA
T1 sequence (O60896 24-148 partner): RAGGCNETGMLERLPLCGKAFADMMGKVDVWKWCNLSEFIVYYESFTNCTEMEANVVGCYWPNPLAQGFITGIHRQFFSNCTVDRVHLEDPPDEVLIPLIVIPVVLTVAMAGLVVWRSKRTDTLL

[2] = target: T2, human calcitonin receptor (Homo sapiens, UniProt P30988); assay: Assay (II)a functional assay, human calcitonin receptor (CRE luciferase, BHK cells);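 also: luminescence from a CRE-driven luciferase reporter, read by single photon counting after cells were exposed to test samples for 3 h at 37 °C under 5% CO2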; assay type: cell-based; conditions: read-out: hCTR funct. EC50
T2 construct: expressed in transfected cells
T2 sequence (P30988 25-474): T1 sequence (P30988 25-474)

human amylin receptor = target: T3, human amylin receptor (Homo sapiens, UniProt O60896+P30988); assay: Assay (V) binding to the human amylin receptor (SPA, 125I-rat amylin); conditions: human amylin receptor membranes, SPA; read-out: hAmylin-R bind IC50
T3 construct: expressed in transfected cells
T3 sequence (P30988 25-474): T1 sequence (P30988 25-474)
T3 sequence (O60896 24-148 partner): T1 sequence (O60896 24-148 partner)
Method in brief: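 IC50, taken as receptor affinity, came from one-site binding competition analysis of scintillation proximity counts. Amylin 3(a)/CRE-luc cell membranes (35 ng/μL final) were mixed with SPA beads (0.05 mg/well) in 50 mM Hepes pH 7.4 containing CaCl2, MgCl2, 0.1% OA and 0.02% Tween20.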

[3] = target: T2, human calcitonin receptor; assay: Assay (VII) binding to the human calcitonin receptor (SPA, 125I-Calcitonin); conditions: read-out: hCTR bind IC50;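 also: cell membranes coupled to SPA beads, competitive displacement read by scintillation counting, IC50 derived from a one-site competition fit as a measure of receptor affinity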
[4] = Table 6, human functional selectivity (hCTR EC50 / hAmylin-R EC50)
[5] = Table 6a, human functional selectivity (hCTR EC50 / hAmylin-R EC50), at least 5
[6] = Table 6j, hCTR funct. EC50 / hAmylin-R funct. EC50
[7] = Table 6k, hCTR funct. EC50 / hAmylin-R funct. EC50
[8] = functional assay, human amylin receptor

Row | Structure (SMILES) | Ratio hCT/hAmylin funct. [1, 4] | Ratio hCT/hAmylin funct. [1, 5] | Ratio hCT/hAmylin funct. ([1]; Table 6i, hCTR funct. EC50 / hAmylin-R funct. EC50) | EC50 ([1]; Table 6i, human amylin receptor functional) [nM] | Ratio hCT/hAmylin funct. [1, 6] | Ratio hCT/hAmylin funct. [1, 7] | EC50 [2] [nM] | IC50 (human amylin receptor) [nM] | IC50 [3] [nM] | EC50 [1, 8] [nM]
1 | CC[C@H](C)[C@H](NC(=O)[C@H](C)NC(=O)CNC(=O)[C@H](Cc1ccccc1)NC(=O)[C@H](CC(N)=O)NC(=O)[C@@H]1CCCN1C(=O)[C@H](CO)NC(=O)[C@H](CO)NC(=O)[C@H](Cc1c[nH]cn1)NC(=O)[C@H](CCCNC(=N)N)NC(=O)[C@H](CC(C)C)NC(=O)[C@H](Cc1ccccc1)NC(=O)[C@H](CCC(=O)O)NC(=O)[C@H](C)NC(=O)[C@H](CC(C)C)NC(=O)[C@H](CCCNC(=N)N)NC(=O)[C@H](CCC(N)=O)NC(=O)[C@@H](NC(=O)[C@H](C)NC(=O)[C@@H]1CSSC[C@H](NC(=O)[C@@H](N)CCCCNC(=O)CC[C@H](NC(=O)CC[C@H](NC(=O)CCCCCCCCCCCCCCCCCCC(=O)O)C(=O)O)C(=O)O)C(=O)N[C@@H](CC(N)=O)C(=O)N[C@@H]([C@@H](C)O)C(=O)N[C@@H](C)C(=O)N[C@@H]([C@@H](C)O)C(=O)N1)[C@@H](C)O)C(=O)N1CCC[C@H]1C(=O)N[C@@H](CO)C(=O)N[C@@H](CO)C(=O)N[C@H](C(=O)N[C@@H](CC(N)=O)C(=O)N[C@H](C(=O)NCC(=O)N[C@@H](CCCNC(=N)N)C(=O)N[C@@H](CC(N)=O)C(=O)N[C@H](C(=O)N[C@@H](Cc1ccc(O)cc1)C(N)=O)[C@@H](C)O)C(C)C)[C@@H](C)O [Example 88] (H-K([γGlu-γGlu-C20 diacid])CNTATCATQRLAEFLRHSSPNFGAIPSSTNVGRNTY-NH2; disulfide 2-7) | 8.5 | 8.5 | 8.5 | 0.773 | 8.5 | 8.5 | 6.55 | 0.75 | 34.9 | –
2 | CC[C@H](C)[C@H](NC(=O)[C@H](C)NC(=O)CNC(=O)[C@H](Cc1ccccc1)NC(=O)[C@H](CC(N)=O)NC(=O)[C@@H]1CCCN1C(=O)[C@H](CO)NC(=O)[C@H](CO)NC(=O)[C@H](Cc1c[nH]cn1)NC(=O)[C@H](CCCNC(=N)N)NC(=O)[C@H](CC(C)C)NC(=O)[C@H](Cc1ccccc1)NC(=O)[C@H](CC(N)=O)NC(=O)[C@H](C)NC(=O)[C@H](CC(C)C)NC(=O)[C@H](CCCNC(=N)N)NC(=O)[C@H](CCC(N)=O)NC(=O)[C@@H](NC(=O)[C@H](C)NC(=O)[C@@H]1CSSC[C@H](NC(=O)[C@@H](N)CCCCNC(=O)COCCOCCNC(=O)CCCCCCCCCCCCCCCCCCC(=O)O)C(=O)N[C@@H](CC(N)=O)C(=O)N[C@@H]([C@@H](C)O)C(=O)N[C@@H](C)C(=O)N[C@@H]([C@@H](C)O)C(=O)N1)[C@@H](C)O)C(=O)N1CCC[C@H]1C(=O)N[C@@H](CO)C(=O)N[C@@H](CO)C(=O)N[C@H](C(=O)N[C@@H](CC(N)=O)C(=O)N[C@H](C(=O)NCC(=O)N[C@@H](Cc1c[nH]cn1)C(=O)N[C@@H](CC(N)=O)C(=O)N[C@H](C(=O)N[C@@H](Cc1ccc(O)cc1)C(N)=O)[C@@H](C)O)C(C)C)[C@@H](C)O [Example 91] | – | – | – | – | – | – | 1.48 | 0.119 | 12 | 0.04
3 | CC[C@H](C)[C@H](NC(=O)[C@H](C)NC(=O)CNC(=O)[C@H](Cc1ccccc1)NC(=O)[C@H](CC(N)=O)NC(=O)[C@@H]1CCCN1C(=O)[C@H](CO)NC(=O)[C@H](CO)NC(=O)[C@H](Cc1c[nH]cn1)NC(=O)[C@H](CCCNC(=N)N)NC(=O)[C@H](CC(C)C)NC(=O)[C@H](Cc1ccccc1)NC(=O)[C@H](Cc1c[nH]cn1)NC(=O)[C@H](C)NC(=O)[C@H](CC(C)C)NC(=O)[C@H](CCCNC(=N)N)NC(=O)[C@H](CCC(N)=O)NC(=O)[C@@H](NC(=O)[C@H](C)NC(=O)[C@@H]1CSSC[C@H](NC(=O)[C@@H](N)CCCCNC(=O)CC[C@H](NC(=O)CC[C@H](NC(=O)CCCCCCCCCCCCCCCCCCC(=O)O)C(=O)O)C(=O)O)C(=O)N[C@@H](CC(N)=O)C(=O)N[C@@H]([C@@H](C)O)C(=O)N[C@@H](C)C(=O)N[C@@H]([C@@H](C)O)C(=O)N1)[C@@H](C)O)C(=O)N1CCC[C@H]1C(=O)N[C@@H](CO)C(=O)N[C@@H](CO)C(=O)N[C@H](C(=O)N[C@@H](CC(N)=O)C(=O)N[C@H](C(=O)NCC(=O)N[C@@H](CO)C(=O)N[C@@H](CC(N)=O)C(=O)N[C@H](C(=O)N[C@@H](Cc1ccc(O)cc1)C(N)=O)[C@@H](C)O)C(C)C)[C@@H](C)O [Example 92] | 28.0 | 28.0 | – | – | 28.0 | 28.0 | 2.38 | 0.179 | 26 | 0.085
4 | CC[C@H](C)[C@H](NC(=O)[C@H](C)NC(=O)CNC(=O)[C@H](Cc1ccccc1)NC(=O)[C@H](CC(N)=O)NC(=O)[C@@H]1CCCN1C(=O)[C@H](CO)NC(=O)[C@H](CO)NC(=O)[C@H](Cc1c[nH]cn1)NC(=O)[C@H](CCCNC(=N)N)NC(=O)[C@H](CC(C)C)NC(=O)[C@H](Cc1ccccc1)NC(=O)[C@H](C)NC(=O)[C@H](C)NC(=O)[C@H](CC(C)C)NC(=O)[C@H](CCCNC(=N)N)NC(=O)[C@H](CCC(N)=O)NC(=O)[C@@H](NC(=O)[C@H](C)NC(=O)[C@@H]1CSSC[C@H](NC(=O)[C@@H](N)CCCCNC(=O)CC[C@H](NC(=O)CCCCCCCCCCCCCCCCCCC(=O)O)C(=O)O)C(=O)N[C@@H](CC(N)=O)C(=O)N[C@@H]([C@@H](C)O)C(=O)N[C@@H](C)C(=O)N[C@@H]([C@@H](C)O)C(=O)N1)[C@@H](C)O)C(=O)N1CCC[C@H]1C(=O)N[C@@H](CO)C(=O)N[C@@H](CO)C(=O)N[C@H](C(=O)N[C@@H](CC(N)=O)C(=O)N[C@H](C(=O)NCC(=O)N[C@@H](Cc1c[nH]cn1)C(=O)N[C@@H](CC(N)=O)C(=O)N[C@H](C(=O)N[C@@H](Cc1ccc(O)cc1)C(N)=O)[C@@H](C)O)C(C)C)[C@@H](C)O [Example 93] (H-K([γGlu-C20 diacid])CNTATCATQRLAAFLRHSSPNFGAIPSSTNVGHNTY-NH2; disulfide 2-7) | 9.7 | 9.7 | – | – | 9.7 | 9.7 | 1.15 | 0.176 | 17.8 | 0.118
5 | CC[C@H](C)[C@H](NC(=O)[C@H](C)NC(=O)CNC(=O)[C@H](Cc1ccccc1)NC(=O)[C@H](CC(N)=O)NC(=O)[C@@H]1CCCN1C(=O)[C@H](CO)NC(=O)[C@H](CO)NC(=O)[C@H](Cc1c[nH]cn1)NC(=O)[C@H](CCCNC(=N)N)NC(=O)[C@H](CC(C)C)NC(=O)[C@H](Cc1ccccc1)NC(=O)[C@H](CC(N)=O)NC(=O)[C@H](C)NC(=O)[C@H](CC(C)C)NC(=O)[C@H](CCCNC(=N)N)NC(=O)[C@H](CCC(N)=O)NC(=O)[C@@H](NC(=O)[C@H](C)NC(=O)[C@@H]1CSSC[C@H](NC(=O)[C@@H](N)CCCCNC(=O)COCCOCCNC(=O)COCCOCCNC(=O)CC[C@H](NC(=O)CCCCCCCCCCCCCCCCCCC(=O)O)C(=O)O)C(=O)N[C@@H](CC(N)=O)C(=O)N[C@@H]([C@@H](C)O)C(=O)N[C@@H](C)C(=O)N[C@@H]([C@@H](C)O)C(=O)N1)[C@@H](C)O)C(=O)N1CCC[C@H]1C(=O)N[C@@H](CO)C(=O)N[C@@H](CO)C(=O)N[C@H](C(=O)N1CCC[C@H]1C(=O)N[C@H](C(=O)NCC(=O)N[C@@H](CO)C(=O)N[C@@H](CC(N)=O)C(=O)N[C@H](C(=O)N[C@@H](Cc1ccc(O)cc1)C(N)=O)[C@@H](C)O)C(C)C)[C@@H](C)O [Example 96] | 21.0 | 21.0 | – | – | 21.0 | 21.0 | 3.8 | 0.166 | 13.2 | 0.181
6 | CC[C@H](C)[C@H](NC(=O)[C@H](C)NC(=O)CNC(=O)[C@H](Cc1ccccc1)NC(=O)[C@H](CC(N)=O)NC(=O)[C@@H]1CCCN1C(=O)[C@H](CO)NC(=O)[C@H](CO)NC(=O)[C@H](Cc1c[nH]cn1)NC(=O)[C@H](CCCNC(=N)N)NC(=O)[C@H](CC(C)C)NC(=O)[C@H](Cc1ccccc1)NC(=O)[C@H](CC(N)=O)NC(=O)[C@H](C)NC(=O)[C@H](CC(C)C)NC(=O)[C@H](CCCNC(=N)N)NC(=O)[C@H](CCC(N)=O)NC(=O)[C@@H](NC(=O)[C@H](C)NC(=O)[C@@H]1CSSC[C@H](NC(=O)[C@@H](N)CCCCNC(=O)COCCOCCNC(=O)COCCOCCNC(=O)CC[C@H](NC(=O)CCCCCCCCCCCCCCCCCCC(=O)O)C(=O)O)C(=O)N[C@@H](CC(N)=O)C(=O)N[C@@H]([C@@H](C)O)C(=O)N[C@@H](C)C(=O)N[C@@H]([C@@H](C)O)C(=O)N1)[C@@H](C)O)C(=O)N1CCC[C@H]1C(=O)N[C@@H](CO)C(=O)N[C@@H](CO)C(=O)N[C@H](C(=O)N[C@@H](CC(N)=O)C(=O)N[C@H](C(=O)NCC(=O)N1CCC[C@H]1C(=O)N[C@@H](CC(N)=O)C(=O)N[C@H](C(=O)N[C@@H](Cc1ccc(O)cc1)C(N)=O)[C@@H](C)O)C(C)C)[C@@H](C)O [Example 98] | – | – | – | – | – | – | 1.63 | 0.091 | 6.74 | 0.084
